According to article PMC3759421, “Blocking Plasmodium falciparum Development via Dual Inhibition of Hemoglobin Degradation and the Ubiquitin Proteasome System by MG132” (PLoS ONE, 2013):
Peptide text beside a SMILES is read from it. * marks the point of attachment. Cbz = O=C(OCc1ccccc1)*

Tests used:
[1] = target: T1, falcipain-2 (FP2) (Plasmodium falciparum, UniProt Q8I6U4); assay: biochemical; settings: read-out: FP2
T1 construct: gene FP2A; carboxy-terminus region of the prodomain (36 amino acid residues) and the entire mature protease domain
Method: recombinant enzyme inhibition, Z-LR-AMC hydrolysis progress curves (association rate constant); active site titration on falcipain-2 (FP2) | Concentrations of active FP2 and FP3 were determined by active site titration using E64

[2] = target: T2, falcipain-3 (FP3) (Plasmodium falciparum, UniProt Q8IIL0); assay: recombinant enzyme inhibition, Z-LR-AMC hydrolysis progress curves (association rate constant); active site titration; format: biochemical; settings: read-out: FP3
T2 construct: carboxy-terminus region of the prodomain (35 amino acid residues) and the entire mature protease domain
Excerpt: recombinant enzyme inhibition, Z-LR-AMC hydrolysis progress curves (association rate constant); active site titration on falcipain-3 (FP3) | MG132 and E64 inhibited hydrolysis of Z-LR-AMC by both enzymes (Figure 4B)

[3] = target: T1, falcipain-2 (FP2); assay: recombinant enzyme inhibition, Z-LR-AMC hydrolysis progress curves (association rate constant); format: biochemical; settings: read-out: FP2
[4] = target: T2, falcipain-3 (FP3); assay: as above; format: biochemical; settings: read-out: FP3
Excerpt: recombinant enzyme inhibition, Z-LR-AMC hydrolysis progress curves (association rate constant) on falcipain-3 (FP3) | MG132 and E64 inhibited hydrolysis of Z-LR-AMC by both enzymes (Figure 4B), confirming that MG132 is a falcipain inhibitor

T2 sequence (Q8IIL0 208-492): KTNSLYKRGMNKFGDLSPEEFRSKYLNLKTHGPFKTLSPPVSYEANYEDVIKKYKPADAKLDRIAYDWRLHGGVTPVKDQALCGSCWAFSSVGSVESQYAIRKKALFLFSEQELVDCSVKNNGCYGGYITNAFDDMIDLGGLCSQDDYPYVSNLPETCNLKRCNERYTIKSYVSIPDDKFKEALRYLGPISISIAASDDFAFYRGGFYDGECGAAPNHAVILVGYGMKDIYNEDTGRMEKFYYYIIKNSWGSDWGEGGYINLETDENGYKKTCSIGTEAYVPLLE
T1 sequence (Q8I6U4 208-484): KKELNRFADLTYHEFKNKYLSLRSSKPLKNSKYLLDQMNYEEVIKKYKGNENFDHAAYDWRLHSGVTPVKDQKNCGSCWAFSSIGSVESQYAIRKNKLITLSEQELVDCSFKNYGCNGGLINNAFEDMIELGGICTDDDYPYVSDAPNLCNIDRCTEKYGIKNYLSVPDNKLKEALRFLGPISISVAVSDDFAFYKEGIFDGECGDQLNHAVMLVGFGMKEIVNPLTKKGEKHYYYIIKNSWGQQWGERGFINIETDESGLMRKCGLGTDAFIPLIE

CC(C)C[C@H](NC(=O)[C@H]1O[C@@H]1C(=O)O)C(=O)NCCCCN=C(N)N [E64, L-trans-epoxysuccinyl-leucyl-amido(4-guanidino)butane] was tested, and the kon [1] was 10300 M⁻¹ s⁻¹ and the kon [2] was 4090 M⁻¹ s⁻¹.
CC(C)C[C@@H](C=O)NC(=O)[C@H](CC(C)C)NC(=O)[C@H](CC(C)C)NC(=O)OCc1ccccc1 [MG132] (Cbz-Leu-Leu-Leu-aldehyde) was tested, and the kon [3] was 189000 M⁻¹ s⁻¹ and the kon [4] was 412000 M⁻¹ s⁻¹.
